This assay relates to collagen I A2. Put plainly: ELISA for collagen1A2 in ECM isolated from cultured hypodermis explants after 10 days of treatment. Format: cell-based, human. The settings on record: additions (extract solvents/additives) alone. Background: An ELISA detects its analyte on a solid surface through an enzyme-linked reagent.

Structures are written as SMILES.

Experimental: The hypodermis was prepared and weighed out into approximately 200 mg pieces. The tissue was cultured in a submersed state in defined and serum-free hypodermis tissue culture medium (CB-EM-HYP) in an actively humidified biomedical incubator (Memmert, Germany) at 37° C. and 5% CO2.
Overnight cultivation was followed by substitution with fresh tissue culture medium. Explants were cultivated either in the presence or absence of test samples.
Over a period of 10 days, the medium was replaced daily with freshly supplemented test samples or with normal media without test samples.
After 10 days of treatment, a portion of the tissue samples was processed for the extraction of ECM proteins.
Isolated ECM was subjected to a protein estimation in accordance with the BCA method (Bicinchoninic Acid) (Sigma Aldrich), and ELISAs (Biotechne) corresponding to the antigen collagen1A2 were performed according to the manufacturer's protocol using the same amounts of proteins as were estimated from the BCA assay. A sensitive filter-based microplate reader (Accuris, USA) was used to perform readout.
The following test samples were investigated: • A. Glycolic caviar extract containing approx. 6% fish egg material, 10% water and propylene glycol ad 100. […] Lipophilic caviar extract containing 40% fish egg material, 0.02% tocopherol, 1% by weight phenoxyethanol and triglycerides ad 100. This extract was obtained from an extraction with triglycerides and phenoxyethanol of a homogenizate from fish eggs of Acipenser baerii. […] The proportion of sodium mannose 6-phosphate is 2.5% by weight. The proportion of mannose is 2.5% by weight.

With `O=C(O)[C@@H](O)[C@H](O)[C@H](O)[C@@H](O)C(=O)O` [galactaric acid], the “Increase in the expression of collagen I by the additions alone” value (shortened to “Increase in the expression of collagen I”) is “do not show any increase”.

As for `OCC(O)CO` [glycerol], the “Increase in the expression of collagen I” value is “do not show any increase”.

`CC(O)CO` (stereo not shown) [propylene glycol]: the “Increase in the expression of collagen I” value is on record as “do not show any increase”.

As for `O` [water], the “Increase in the expression of collagen I” value is listed as “do not show any increase”.
